The source of these data is patent US12364692B2, “Topical naloxone compositions and methods for using the same” (Teikoku Pharma USA, Inc., priority 2020, dated 2025).

For data set [1] the following is noted: control and treatments other than hydrogen peroxide (5N hydrochloric acid, 5N sodium hydroxide 18 hours, 60° C. 2 weeks); peak areas relative to total area.
Data set [2] relates to mice (HOS:HR-1 hairless) with atopic dermatitis skin symptoms. Put plainly: Scratching behavior in hairless mouse model of atopic dermatitis pruritis. Type of data set: in vivo. Conditions: FIGS. 3-6; topical 0.1 ml/day, days 34, 41, 48, 55. The protocol:
Atopic dermatitis skin symptoms were induced by providing a special feed diet 10 to mice (HOS:HR-1 hairless). All groups were treated with daily 0.1 ml/day of ointment over the entire back of each mouse for three consecutive weeks starting on Day 34. Mice were video recorded predose (baseline activity) for 30 minutes and observed for scratching for a period of one hour post application on days 34, 35, 38, 41, 45, 48, and 55. The topical naloxone active agent composition was allowed to dry 15 for one (1) hour prior to video recording of scratching behavior. Scratching behavior was monitored every 5 minutes for an hour where the number of scratching bouts includes one or more of the following actions: hind leg raised, scratching the back or lowering the leg to the floor. Cumulative duration of scratching behavior was also determined. Trans-epidermal water loss (TEWL) measured on Days 34, 48, 55 20 (Phase 2) and Days 33 and 55 (Phase 3) was also measured.

For the compound `C=CCN1CC[C@]23c4c5ccc(O)c4O[C@H]2C(=O)CC[C@@]3(O)[C@H]1C5` [naloxone drug substance, naloxone], the total related substances entry in data set [1] is listed as “below 1%”.
For the compound `C=CCN1CC[C@]23c4c5ccc(O)c4O[C@H]2C(=O)CC[C@@]3(O)[C@H]1C5` [naloxone free base, naloxone], in data set [2], the cumulative scratching duration result is listed as “decreased” and the mean scratching bouts entry was “decreased”.
